In assay [1] the target is T1, progesterone receptor ligand binding domain (LBD) (Homo sapiens, UniProt P06401).
T1 construct: GST-tagged PR LBD, Fluormone tracer, and compound were mixed; purchased Life Technologies A15905 or a15906
T1 sequence (P06401 679-913 limits assumed): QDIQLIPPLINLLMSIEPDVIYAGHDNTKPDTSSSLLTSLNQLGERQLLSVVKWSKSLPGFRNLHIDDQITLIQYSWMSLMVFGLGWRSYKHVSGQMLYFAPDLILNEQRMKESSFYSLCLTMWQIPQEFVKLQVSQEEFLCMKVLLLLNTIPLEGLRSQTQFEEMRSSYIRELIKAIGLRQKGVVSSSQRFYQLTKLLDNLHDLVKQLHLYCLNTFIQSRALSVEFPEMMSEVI
Briefly: FP assay (PolarScreen Progesterone Receptor Competitor Assay) for binding to progesterone receptor LBD. As to conditions: GST-tagged PR LBD, Fluormone tracer, fluorescence polarization, 2 hours; Table 17. The protocol:
Compounds were tested using the PolarScreen™ Progesterone Receptor Competitor Assay Kit (Life Technologies Cat #A15905 or a15906), as per the manufacturer's instructions. Briefly, GST-tagged PR LBD, Fluormone tracer, and compound were mixed and incubated for 2 hours at room temperature in the dark. Following incubation, the plates were spun at 3000×g for 30 seconds, then sealed with an optical adhesive cover, and fluorescence polarization was measured using appropriate excitation and emission filters with an EnVision Plate Reader (Perkin Elmer). Compound concentration vs. mP value were plotted in Prism (GraphPad). A four-parameter non-linear regression curve fit was applied to dose-response data to determine the half-maximal inhibitory concentration (IC50) for each test compound.
(In general: In fluorescence polarisation assays a small probe gives low polarisation when free and higher when bound to something large.)

A further assay concerns VCaP cells. Nature of the assay: Cellular growth inhibition assay for VCaP cells, CellTiter-Glo. Format: cell-based, human. As to conditions: Homo sapiens, VCaP, 72 h, 72 hours treatment, CellTiter-Glo 2.0. In short, it runs like this:
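GI50 values come from four-parameter curve fits of luminescence data normalized to a zero baseline. Compound, in medium with 0.5% DMSO, was added one day after plating and left for 72 h before CellTiter-Glo 2.0 addition.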
(Cellular ATP, detected with luciferase, serves as a proxy for viable cell number.)

Another assay deals with T47D cells. Briefly: Cellular growth inhibition assay for T47D cells, CellTiter-Glo. Type of assay: cell-based, human. The following applies: Homo sapiens, T47D, 72 h, 72 hours treatment, CellTiter-Glo 2.0 cell viability. An outline of the steps: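 Luminescence from CellTiter-Glo 2.0 after 72 h of compound exposure gives the viability signal. Cells grew in insulin-supplemented (0.2 units/mL) DMEM with 10% FBS and were treated one day after seeding at 0.5% DMSO. GI50 values come from four-parameter nonlinear regression.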

A further assay deals with T2, progesterone receptor (Homo sapiens, UniProt P06401).
T2 construct: host or cells: T47D cells (cytosolic fraction)
T2 sequence (P06401 1-933): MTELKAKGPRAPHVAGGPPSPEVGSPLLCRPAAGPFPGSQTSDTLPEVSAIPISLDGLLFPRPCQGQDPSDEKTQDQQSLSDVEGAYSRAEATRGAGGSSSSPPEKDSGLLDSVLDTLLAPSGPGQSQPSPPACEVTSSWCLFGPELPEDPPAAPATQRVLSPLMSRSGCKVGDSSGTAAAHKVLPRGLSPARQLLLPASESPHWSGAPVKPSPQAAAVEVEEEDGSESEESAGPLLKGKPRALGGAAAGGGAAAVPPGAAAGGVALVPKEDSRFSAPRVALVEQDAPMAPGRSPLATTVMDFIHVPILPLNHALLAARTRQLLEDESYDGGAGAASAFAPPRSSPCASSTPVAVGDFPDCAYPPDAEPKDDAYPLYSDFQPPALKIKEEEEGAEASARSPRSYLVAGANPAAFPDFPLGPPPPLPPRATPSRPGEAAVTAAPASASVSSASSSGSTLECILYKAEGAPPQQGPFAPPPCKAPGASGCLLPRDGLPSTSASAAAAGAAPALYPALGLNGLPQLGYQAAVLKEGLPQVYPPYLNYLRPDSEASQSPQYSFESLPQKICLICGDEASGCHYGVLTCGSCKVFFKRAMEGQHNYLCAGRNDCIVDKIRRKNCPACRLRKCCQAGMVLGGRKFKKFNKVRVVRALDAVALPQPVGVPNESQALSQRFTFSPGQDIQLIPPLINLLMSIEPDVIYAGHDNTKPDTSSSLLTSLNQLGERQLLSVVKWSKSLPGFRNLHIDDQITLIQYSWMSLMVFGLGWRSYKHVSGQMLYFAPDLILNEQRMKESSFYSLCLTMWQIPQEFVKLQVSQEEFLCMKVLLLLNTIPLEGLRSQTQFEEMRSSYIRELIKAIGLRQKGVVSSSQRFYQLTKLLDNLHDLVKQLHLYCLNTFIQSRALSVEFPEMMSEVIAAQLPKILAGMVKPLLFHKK
Briefly: PR Human Progesterone NHR Binding (Agonist Radioligand) Assay, T47D cytosol. As to conditions: T47D cytosolic fractions, 0.5 nM [3H]progesterone, 1 hour at 4° C., Table 16. The protocol:
Compounds were tested using the PR Human Progesterone NHR Binding (Agonist Radioligand) Assay, Cerep at Eurofins Discovery using a modified version of the protocol from Sarup et al. (Cancer Res 1988; 48:5071-5078). Briefly, cytosolic fractions of T47D cells were incubated with 0.5 nM [^3H]progesterone for 1 hour at 4° C. in the absence or presence of the test compound. Nonspecific binding was determined in the presence of 1 μM promegestone. Reactions were subjected to scintillation counting. Results are expressed as a percent inhibition of the control radioligand specific binding.

In the next assay the target is T3, androgen receptor (Homo sapiens, UniProt P10275).
T3 sequence (P10275 1-920 T878A): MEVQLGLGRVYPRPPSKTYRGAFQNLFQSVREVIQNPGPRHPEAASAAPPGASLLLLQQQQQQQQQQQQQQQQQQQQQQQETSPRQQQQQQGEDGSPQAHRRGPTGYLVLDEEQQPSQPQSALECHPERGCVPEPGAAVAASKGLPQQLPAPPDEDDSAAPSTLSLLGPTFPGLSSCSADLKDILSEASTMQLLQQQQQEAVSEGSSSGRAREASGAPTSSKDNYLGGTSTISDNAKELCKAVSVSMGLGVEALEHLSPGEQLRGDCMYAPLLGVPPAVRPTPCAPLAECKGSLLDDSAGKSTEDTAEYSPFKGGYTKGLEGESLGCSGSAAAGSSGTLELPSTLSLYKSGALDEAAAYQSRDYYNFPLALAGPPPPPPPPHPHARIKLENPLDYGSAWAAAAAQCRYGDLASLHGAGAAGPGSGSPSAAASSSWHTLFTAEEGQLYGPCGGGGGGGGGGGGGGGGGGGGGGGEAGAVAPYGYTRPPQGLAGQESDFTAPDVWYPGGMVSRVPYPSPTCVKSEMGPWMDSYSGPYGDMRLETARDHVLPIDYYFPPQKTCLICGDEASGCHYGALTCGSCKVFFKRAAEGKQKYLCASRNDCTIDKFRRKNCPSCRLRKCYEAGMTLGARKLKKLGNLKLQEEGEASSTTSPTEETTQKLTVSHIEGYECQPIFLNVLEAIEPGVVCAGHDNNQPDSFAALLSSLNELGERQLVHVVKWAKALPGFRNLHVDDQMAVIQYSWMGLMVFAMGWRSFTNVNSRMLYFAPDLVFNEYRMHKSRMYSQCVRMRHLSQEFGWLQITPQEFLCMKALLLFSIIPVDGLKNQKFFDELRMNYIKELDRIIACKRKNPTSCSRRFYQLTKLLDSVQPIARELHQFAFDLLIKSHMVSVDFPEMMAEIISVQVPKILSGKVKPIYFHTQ
Nature of the assay: Assay for binding affinity to androgen receptor ([3H]methyltrienolone radioligand, cell cytosol). The following applies: 1 nM [3H]methyltrienolone, 24 hours at 4° C., Table 5. On the procedure: Fractions of cell cytosol ([…] cell/point) were incubated for 24 hours at 4° C. with 1 nM [^3H]methyltrienolone in the absence or presence of the test compound in a buffer containing 25 mM Hepes-Tris (pH 7.4), 1 mM EDTA, 10 mM Na2MoO4, 2 mM DTT, 5 μM triamcinolone acetonide, and 10% glycerol. Nonspecific binding was determined in the presence of 1 μM testosterone. Following incubation, the samples were filtered rapidly under vacuum through glass fiber filters (GF/B, Packard) presoaked with 0.3% PEI and rinsed several times with ice-cold 50 mM Tris-HCl using a 96-sample cell harvester (Unifilter, Packard). The filters were dried then counted for radioactivity in a scintillation counter (Topcount, Packard) using a scintillation cocktail (Microscint 0, Packard). The results are expressed as a percent inhibition of the control radioligand specific binding. The standard reference compound is testosterone, which is tested in each experiment at several concentrations to obtain a competition curve from which its IC50 is calculated.

For orientation: IC50 means the concentration that inhibits the measured activity by half. Read a low IC50 as greater potency. As usually defined, the GI50 is the concentration that inhibits growth by half. Low readings indicate more potent growth inhibition, high ones less potent growth inhibition. For `Cc1sc2c(c1C)C(c1ccc(CCCOC3CCN(c4ncc5c(n4)CN([C@H]4C(C)(C)[C@H](Oc6ccc(C#N)c(Cl)c6)C4(C)C)C5=O)CC3)cc1)=NC(Cc1ncco1)c1nnc(C)n1-2` (stereo partly drawn) [Compound I-134], the concentration for half-maximal inhibition (IC50) in assay [1] is 50 to 500 nM. Besides, the GI50 with VCaP cells is under 500 nM; in the assay with T47D cells, 500 to 1500 nM.
As a reminder, the Ki is the equilibrium dissociation constant of an inhibitor or competing ligand from its target. Higher therefore signals weaker binding. What is called Kd is the concentration at which binding is half-saturated. Low readings indicate a tighter complex, high ones a looser complex. `Cc1sc2c(c1C)C(c1ccc(N3CC(CC4CN(c5cnc(C(=O)N[C@H]6C(C)(C)[C@H](Oc7ccc(C#N)c(Cl)c7)C6(C)C)cn5)C4)C3)cc1)=N[C@@H](C)c1nnc(C)n1-2` [Compound I-503] came in with an inhibitory constant (Ki) on progesterone receptor of under 50 nM. Moreover, the GI50 in the assay with T47D cells was under 500 nM. For the same compound, on androgen receptor, the Kd lay within 50 to 500 nM.

Values taken from patent US20260062422A1 (Halda Therapeutics OpCo, Inc., priority 2022, published 2026).
